We go through 11 compounds from ChEMBL document CHEMBL1201862, “PubChem BioAssay data set” (2004).

Some test systems named below: NCI-H522; NCI-H460; SF-295; MDA-MB-231; TK-10; SK-MEL-28; OVCAR-8; OVCAR-5; K562; DU-145; SF-539; MCF7; RPMI-8226; IGROV-1; Hs-578T; MDA-MB-435; HOP-92; CCRF-CEM; SK-MEL-5; A498.
Assay in all cases: NCI anticancer screen, dose series, 48 h

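Where inhibition never reached the appropriate level, the endpoint shown equals the highest concentration tested. Otherwise, values were interpolated linearly from a five-concentration, 48-hour dose response in 96-well plates. The concentration for 50% growth inhibition is given as GI50.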 Activity calls are given as the source filed them. No stated cut-off is given here; in the data, active = GI50 up to about 1.1 µM and inactive = higher.

With `O=c1oc2ccc(Cl)cc2cc1C1=CSC2=NCCN12`, the GI50 was 18.7 µM (inactive) in the experiment with NCI-H522; 30.3 µM (inactive) in the experiment with NCI-H460; 23.3 µM (inactive) in the experiment with SF-295; 20.4 µM (inactive) in the experiment on MDA-MB-231; 27.1 µM (inactive) in the experiment on TK-10; 27.9 µM (inactive) in the experiment on SK-MEL-28. In addition, the GI50 in the experiment with OVCAR-8 is 19.9 µM (inactive); in the experiment on OVCAR-5, 50.5 µM (inactive); in the experiment on K562 it was 18.2 µM (inactive); with DU-145, 19.3 µM (inactive); in the experiment on SF-539 it was 28.6 µM (inactive); in the experiment with MCF7, 19.6 µM (inactive). The GI50 was 20.4 µM (inactive) with RPMI-8226; 18.5 µM (inactive) in the experiment on IGROV-1; 31.7 µM (inactive) in the experiment on Hs-578T; 21.5 µM (inactive) in the experiment on MDA-MB-435; 22.1 µM (inactive) with HOP-92; 20.4 µM (inactive) in the experiment with CCRF-CEM. In addition, in the experiment with SK-MEL-5, the GI50 is 19.1 µM (inactive).

For the compound `CC(C)=CCC[C@@H](C)C1=C(Nc2ccccc2)C(=O)C(C)=C(O)C1=O`, the GI50 in the experiment on NCI-H522 is 3.03 µM (inactive); in the experiment with NCI-H460, 1.63 µM (inactive); with SF-295 it was 1.85 µM (inactive); with MDA-MB-231 it was 2.89 µM (inactive); in the experiment with TK-10, 4.29 µM (inactive); in the experiment with SK-MEL-28, 8.02 µM (inactive). Moreover, the GI50 with OVCAR-8 was 2.1 µM (inactive); in the experiment with OVCAR-5, 8.95 µM (inactive); in the experiment with A498, 3.34 µM (inactive); with K562 it was 2.92 µM (inactive); in the experiment on DU-145 it was 4.59 µM (inactive); in the experiment on MCF7 it was 4.29 µM (inactive). Also, the GI50 in the experiment with RPMI-8226 was 9.66 µM (inactive); in the experiment on IGROV-1 it was 3.01 µM (inactive); with Hs-578T, 2.34 µM (inactive); in the experiment on MDA-MB-435, 4.72 µM (inactive); in the experiment with HOP-92, 2.87 µM (inactive); with CCRF-CEM it was 0.239 µM (active). In the experiment with SK-MEL-5, the GI50 is 2 µM (inactive).

With `COC1CCON1C(=O)c1ccccc1` (stereo not given), the GI50 in the experiment with NCI-H522, with NCI-H460, in the experiment on SF-295, in the experiment on MDA-MB-231, with TK-10 and with SK-MEL-28 was > 10 µM (inactive) each time. For the same compound, the GI50 in the experiment on OVCAR-8, with OVCAR-5, in the experiment on K562, in the experiment with DU-145, in the experiment with SF-539 and in the experiment on MCF7 was > 10 µM (inactive) throughout. In addition, the GI50 with RPMI-8226, with IGROV-1, in the experiment with Hs-578T, in the experiment on MDA-MB-435, with CCRF-CEM and in the experiment with SK-MEL-5 was > 10 µM (inactive) in each case.

In the case of `COc1ccc(/C=C2\N=C(N3CCCC(CO)C3)NC2=O)cc1` (stereo not given), the GI50 with NCI-H522, in the experiment on SF-295, in the experiment with MDA-MB-231, with TK-10, with SK-MEL-28 and in the experiment with OVCAR-8 was > 100 µM (inactive) in each case. The GI50 in the experiment with OVCAR-5, with DU-145, with SF-539, in the experiment on MCF7, with RPMI-8226 and in the experiment on IGROV-1 was > 100 µM (inactive) each time. Also, the GI50 in the experiment on Hs-578T, in the experiment on MDA-MB-435, in the experiment on HOP-92, in the experiment on CCRF-CEM and in the experiment with SK-MEL-5 was > 100 µM (inactive) throughout.

As to `CCO/C=C(\C(=O)OC)S(=O)(=O)c1ccc(C)cc1`, the GI50 in the experiment on NCI-H522, in the experiment with NCI-H460, in the experiment on SF-295, in the experiment with MDA-MB-231, with TK-10 and with SK-MEL-28 was > 100 µM (inactive) throughout. Besides, the GI50 in the experiment with OVCAR-8, with OVCAR-5, in the experiment with K562, in the experiment with DU-145, in the experiment with SF-539 and in the experiment with MCF7 was > 100 µM (inactive) each time. Also, the GI50 with RPMI-8226, in the experiment with IGROV-1, with Hs-578T, with MDA-MB-435, in the experiment on HOP-92 and in the experiment on CCRF-CEM was > 100 µM (inactive) throughout. In addition, the GI50 in the experiment with SK-MEL-5 is > 100 µM (inactive).

On to `CCOC(=O)CNC(=O)CNC(=O)CNC(=O)CNNc1c(OCc2ccccc2)c(=O)c1=O`, for which the GI50 in the experiment with NCI-H522, in the experiment on MDA-MB-231, in the experiment with TK-10, with SK-MEL-28, in the experiment on OVCAR-8 and in the experiment with OVCAR-5 was > 100 µM (inactive) each time. For the same compound, the GI50 with A498, in the experiment with K562, with DU-145, in the experiment on MCF7, in the experiment with RPMI-8226 and in the experiment on IGROV-1 was > 100 µM (inactive) throughout. Besides, the GI50 in the experiment on Hs-578T, in the experiment with MDA-MB-435, in the experiment with CCRF-CEM and in the experiment on SK-MEL-5 was > 100 µM (inactive) each time.

For the compound `N#Cc1c(-c2ccccc2)cc(-c2ccc(Cl)cc2)[nH]c1=S`, the GI50 in the experiment with NCI-H522 is 27.4 µM (inactive); with NCI-H460 it was 32.5 µM (inactive); with SF-295 it was 27.1 µM (inactive); in the experiment on MDA-MB-231, 23.4 µM (inactive); in the experiment on TK-10, 45.9 µM (inactive); in the experiment with SK-MEL-28, 20.3 µM (inactive). The GI50 in the experiment with OVCAR-8 was 43.6 µM (inactive); in the experiment with OVCAR-5 it was 62.4 µM (inactive); with A498 it was 22.6 µM (inactive); in the experiment with K562, 34 µM (inactive); with DU-145 it was 53.6 µM (inactive); with MCF7, 23.4 µM (inactive). For the same compound, the GI50 was 29.2 µM (inactive) with RPMI-8226; 26.7 µM (inactive) with IGROV-1; 38.8 µM (inactive) in the experiment on Hs-578T; 14.3 µM (inactive) in the experiment on MDA-MB-435; 65.9 µM (inactive) in the experiment with HOP-92; 26.4 µM (inactive) in the experiment on CCRF-CEM. For the same compound, in the experiment on SK-MEL-5, the GI50 is 17.7 µM (inactive).

As to `Oc1cccc(-c2cn3cc(Cl)ccc3n2)c1`, the GI50 with NCI-H522 is 15.9 µM (inactive); in the experiment with NCI-H460 it was 34 µM (inactive); with SF-295, 39.4 µM (inactive); in the experiment on MDA-MB-231, > 100 µM (inactive); with TK-10, 35.4 µM (inactive); in the experiment on SK-MEL-28 it was 59.8 µM (inactive). Moreover, the GI50 is 31.4 µM (inactive) in the experiment with OVCAR-8; 72.6 µM (inactive) with OVCAR-5; 45.3 µM (inactive) in the experiment on A498; 42.1 µM (inactive) in the experiment on K562; 31 µM (inactive) with DU-145; 17.3 µM (inactive) in the experiment on MCF7. In addition, the GI50 in the experiment on IGROV-1 was 16.7 µM (inactive); in the experiment with Hs-578T it was 97.1 µM (inactive); in the experiment with MDA-MB-435, 34.9 µM (inactive); with HOP-92, 91.8 µM (inactive); with CCRF-CEM it was 7.03 µM (inactive); in the experiment on SK-MEL-5, 16.6 µM (inactive).

As for `CCOc1cc(C=O)c2c(ccc3ccc(OC)c(OC)c32)c1OC`, the GI50 in the experiment with NCI-H522 is 38.5 µM (inactive); with NCI-H460, 20 µM (inactive); with SF-295, 43.8 µM (inactive); in the experiment with MDA-MB-231, > 100 µM (inactive); in the experiment on TK-10 it was > 100 µM (inactive); with SK-MEL-28, 89.9 µM (inactive). Further, the GI50 in the experiment on OVCAR-8 was 50 µM (inactive); in the experiment with OVCAR-5, > 100 µM (inactive); with K562, 14.5 µM (inactive); with DU-145, > 100 µM (inactive); in the experiment on RPMI-8226, 15.5 µM (inactive); in the experiment with IGROV-1, 89.9 µM (inactive). Moreover, the GI50 is 37.8 µM (inactive) in the experiment on Hs-578T; 70.6 µM (inactive) in the experiment with MDA-MB-435; > 100 µM (inactive) in the experiment with HOP-92; 28.2 µM (inactive) in the experiment with CCRF-CEM; 52.4 µM (inactive) in the experiment with SK-MEL-5.

Consider `C=CC1(c2ccc(OC)cc2)OCCCO1`, for which the GI50 in the experiment with NCI-H522, with NCI-H460, with SF-295, with MDA-MB-231, in the experiment with TK-10 and with SK-MEL-28 was > 100 µM (inactive) each time. The GI50 in the experiment with OVCAR-8, in the experiment with OVCAR-5, with K562, with DU-145, with SF-539 and in the experiment on MCF7 was > 100 µM (inactive) each time. The GI50 with RPMI-8226, in the experiment with IGROV-1, in the experiment with Hs-578T, in the experiment with MDA-MB-435, in the experiment on HOP-92 and in the experiment on CCRF-CEM was > 100 µM (inactive) in each case. Further, the GI50 in the experiment with SK-MEL-5 is > 100 µM (inactive).

Turning to `CC(=O)OCC1OC(OC2CC3C(C)(C)C(=O)CC[C@]3(C)C3CC[C@]45C[C@]4(CCC5[C@@H](C)CC(O)C(O)C(C)(C)O)[C@]23C)C(O)C(O)C1O` (stereo not given in full), the GI50 in the experiment with NCI-H522 was 10.6 µM (inactive); in the experiment on NCI-H460, 13.6 µM (inactive); in the experiment on SF-295 it was 14.1 µM (inactive); in the experiment on MDA-MB-231, 6.44 µM (inactive); with TK-10, 14.6 µM (inactive); in the experiment on SK-MEL-28, 3.24 µM (inactive). In addition, the GI50 in the experiment with OVCAR-8 is 13.5 µM (inactive); with OVCAR-5, 16.7 µM (inactive); in the experiment with K562, 5.52 µM (inactive); with DU-145, 17.1 µM (inactive); in the experiment on SF-539, 15.3 µM (inactive); with MCF7 it was 4.78 µM (inactive). Further, the GI50 in the experiment on RPMI-8226 was 3.56 µM (inactive); in the experiment with IGROV-1, 11.1 µM (inactive); with Hs-578T, 10.4 µM (inactive); in the experiment with MDA-MB-435, 8.99 µM (inactive); in the experiment with HOP-92, 3.18 µM (inactive); in the experiment on CCRF-CEM, 4.13 µM (inactive). Besides, in the experiment on SK-MEL-5, the GI50 is 7.66 µM (inactive).
